Values after ≈ are worked out from the molar mass of the structure shown.
Experiments:
DNA ligase = DNA ligase FRET inhibition assay, isozyme not specified; assay type: biochemical
Procedure: (§1) Compounds were tested for inhibition of DNA ligase using a Fluorescence Resonance Energy Transfer (FRET) detection assay as previously described (Chen et al. 2002. Analytical Biochemistry 309: 232-240; Benson et al. 2004. Analytical Biochemistry 324:298-300). Assays were performed in 384-well polystyrene flat-bottom black plates in 30 μl reactions containing 3 μl compound dissolved in dimethylsulfoxide, 20 μl 1.5× Enzyme Working Solution (25% glycerol, 45 mM potassium chloride, 45 mM ammonium sulfate, 15 mM dithiothreitol, 1.5 mM ethylenediaminetetraacetic acid (EDTA), 0.003% Brij 35, 75 mM MOPS pH 7.5, 150 nM bovine serum albumin, 1.5 μM NAD^+, 60 nM DNA substrate, 0.375 nM enzyme in water) and 7 μl 70 mM magnesium chlorine solution (96 mM magnesium chloride, 20% glycerol in water) to initiate the reaction. […] Plates were read in a Tecan Ultra plate reader at two separate wavelengths—Read 1: excitation 485, emission 535, Read 2: excitation 485, emission 595. […] Compound potency was based on IC50 measurements determined from reactions performed in the presence of ten different compound concentrations.
Solubility is determined under assay conditions using a nephelometer to detect a change in turbidity as the concentration of compound increases. The limit of solubility is defined as the maximum concentration before a detectable increase in turbidity is measured.

S. pneumoniae LigA = S. pneumoniae LigA (Streptococcus pneumoniae serotype 4, UniProt Q97QT2); experiment: DNA ligase FRET inhibition assay; assay type: biochemical; details: FRET detection, ten compound concentrations; read-out: IC50 (μM) against S. pneumoniae LigA
Procedure: as §1, with “reaction. The DNA substrate is similar to that described in Benson et al. (2004. Analytical Biochemistry 324:298-300).” for “reaction.”

S. pneumoniae = experiment: Bacterial susceptibility testing, microbroth dilution (NCCLS), MIC; assay type: cell-based; details: Streptococcus pneumoniae; lowest concentration able to reduce growth by 80% or more; read-out: MIC (μg/ml) against S. pneumoniae
Procedure: Compounds were tested for antimicrobial activity by susceptibility testing using microbroth dilution methods recommended by NCCLS. Compounds were dissolved in dimethylsulfoxide and tested in 10 doubling dilutions in the susceptibility assays such that the final dimethylsulfoxide concentration in the assay was 2% (v/v). The organisms used in the assay were grown overnight on appropriate agar media and then suspended in the NCCLS-recommended liquid susceptibility-testing media. The turbidity of each suspension was adjusted to be equal to a 0.5 McFarland standard, a further 1-in-10 dilution was made into the same liquid medium to prepare the final organism suspension, and 100 μL of this suspension was added to each well of a microtiter plate containing compound dissolved in 2 μL of dimethylsulfoxide. Plates were incubated under appropriate conditions of atmosphere and temperature and for times according to NCCLS standard methods prior to being read. The Minimum Inhibitory Concentration (MIC) was determined as the lowest drug concentration able to reduce growth by 80% or more.

Chain of S. pneumoniae LigA (Q97QT2 whole entry): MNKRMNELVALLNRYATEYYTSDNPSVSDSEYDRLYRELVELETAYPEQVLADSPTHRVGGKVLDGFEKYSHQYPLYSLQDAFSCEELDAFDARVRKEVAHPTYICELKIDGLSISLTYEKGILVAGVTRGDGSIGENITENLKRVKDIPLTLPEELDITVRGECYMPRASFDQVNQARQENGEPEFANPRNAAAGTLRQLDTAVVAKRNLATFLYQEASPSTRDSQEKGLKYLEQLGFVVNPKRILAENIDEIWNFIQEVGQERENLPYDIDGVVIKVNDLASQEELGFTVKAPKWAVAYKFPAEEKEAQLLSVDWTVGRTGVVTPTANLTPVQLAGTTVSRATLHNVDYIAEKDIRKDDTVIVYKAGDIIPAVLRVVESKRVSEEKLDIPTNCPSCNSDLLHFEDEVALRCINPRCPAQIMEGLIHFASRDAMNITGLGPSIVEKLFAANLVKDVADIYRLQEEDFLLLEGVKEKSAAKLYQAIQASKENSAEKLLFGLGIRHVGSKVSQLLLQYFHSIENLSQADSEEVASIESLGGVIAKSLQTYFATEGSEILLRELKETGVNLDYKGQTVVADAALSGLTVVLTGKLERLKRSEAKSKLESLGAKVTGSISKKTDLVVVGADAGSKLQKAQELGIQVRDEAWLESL

Row | Compound | inhibition of the ligation reaction at the limit of solubility in the assay medium (DNA ligase) | IC50 (S. pneumoniae LigA) [µM] | other results
1 | Nc1nc(OC2CCCC2)nc2c1ncn2C1OCCC1(Cl)Cl (centres unmarked) [2-(cyclopentyloxy)-9-(3,3-dichlorotetrahydrofuran-2-yl)-9H-purin-6-amine] | approximately 12% | – | –
2 | C=C[C@]1(O)[C@H](O)[C@@H](C)O[C@H]1n1cnc2c(N)nc(OC3CCCC3)nc21 [(2R,3S,4R,5R)-2-(6-amino-2-(cyclopentyloxy)-9H-purin-9-yl)-5-methyl-3-vinyltetrahydrofuran-3,4-diol] | approximately 17% | – | –
3 | C[C@H]1O[C@@H](n2c(NCc3ccccc3)nc3c(N)nc(OC4CCCC4)nc32)[C@H](O)[C@@H]1O [Example 2] | – | 10 | –
4 | Nc1nc(OC2CCCC2)nc2c1ncn2[C@@H]1OC(CO)(CO)[C@@H](O)[C@H]1O [Example 12, (3S,4R,5R)-5-[6-amino-2-(cyclopentyloxy)-9H-purin-9-yl]-2,2-bis(hydroxymethyl)tetrahydrofuran-3,4-diol] | – | – | MIC (S. pneumoniae): 16 µg/mL (≈ 42 µM)
5 | Nc1nc(OC2CCCC2)nc2c1ncn2[C@@H]1OC(CF)(CF)[C@@H](O)[C@H]1O [Example 13, (3S,4R,5R)-5-[6-amino-2-(cyclopentyloxy)-9H-purin-9-yl]-2,2-bis(fluoromethyl)tetrahydrofuran-3,4-diol] | – | 1 | –

Reference: patent publication US20090118220A1, “SUBSTITUTED ADENINES AND THE USES THEREOF” (AstraZeneca AB, priority 2006, published 2009)
